From patent US20200131180A1, “POSITIVE ALLOSTERIC MODULATORS OF THE MUSCARINIC ACETYLCHOLINE RECEPTOR M1” (Vanderbilt University, priority 2018, published 2020)
pEC50: −log10 of the molar value.

Target: T1, human mAChR M1 (Homo sapiens, UniProt P11229)
T1 sequence (P11229 1-460): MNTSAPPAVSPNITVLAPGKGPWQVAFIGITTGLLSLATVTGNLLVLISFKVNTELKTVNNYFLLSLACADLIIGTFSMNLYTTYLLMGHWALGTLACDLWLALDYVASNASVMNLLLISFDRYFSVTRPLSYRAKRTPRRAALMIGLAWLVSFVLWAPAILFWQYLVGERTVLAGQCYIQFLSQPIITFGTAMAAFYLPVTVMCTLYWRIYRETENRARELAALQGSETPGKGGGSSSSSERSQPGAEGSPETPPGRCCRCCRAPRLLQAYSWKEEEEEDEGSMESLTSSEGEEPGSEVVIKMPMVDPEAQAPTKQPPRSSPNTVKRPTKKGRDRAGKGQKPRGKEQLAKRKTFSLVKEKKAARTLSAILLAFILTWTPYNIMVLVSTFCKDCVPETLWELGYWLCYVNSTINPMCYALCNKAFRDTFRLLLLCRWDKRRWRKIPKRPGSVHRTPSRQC
Assay: mAChR M1 cell-based functional assay (calcium mobilization, PAM activity)
Conditions: CHO-K1 cells expressing hM1, calcium flux (Fluo-4); for pEC50: concentration-dependent increase in the EC20 acetylcholine response; for Emax: potentiation of EC20 acetylcholine response
Excerpt: Chinese hamster ovary (CHO-K1) cells stably expressing rat (r)M1 were purchased from the American Type Culture Collection and cultured according to their indicated protocol. CHO cells stably expressing human (h)M2, hM3, and hM5 were described previously (Levey, et al., 1991); hM1 and hM4 cDNAs were purchased from Missouri S&T cDNA Resource; rM4 cDNA was provided by T. I. Bonner (National Institutes of Health, Bethesda, Md.). rM2 and rM3 were cloned from a rat brain cDNA library and sequence verified. hM1, rM2, rM3, hM4, and rM4 cDNAs were used to stably transfect CHO-K1 cells purchased from the American Type Culture Collection using Lipofectamine 2000. To make stable rM2, hM2, rM3, hM4, and rM4 cell lines for use in calcium mobilization assays, these cells also were stably transfected with a chimeric G-protein (Gqi5) (provided by B. R. Conklin, University of California, San Francisco) using Lipofectamine 2000. rM1, hM1, rM3, hM3, rM5, and hM5 cells were grown in Ham's F-12 medium containing 10% heat-inactivated fetal bovine serum (FBS), 20 mM HEPES, and 50 μg/mL G418 sulfate. rM2-Gqi5, hM2-Gqi5, and hM4-Gqi5 cells were grown in the same medium also containing 500 μg/mL Hygromycin B. Stable rM4-Gqi5 cells were grown in DMEM containing 10% heat-inactivated FBS, 20 mM HEPES, 400 μg/mL G418 sulfate, and 500 μg/mL Hygromycin B.
For high throughput measurement of agonist-evoked increases in intracellular calcium, CHO-K1 cells stably expressing muscarinic receptors were plated in growth medium lacking G418 and hygromycin at 15,000 cells/20 μL/well in Greiner 384-well black-walled, tissue culture (TC)-treated, clear-bottom plates (VWR). Cells were incubated overnight at 37° C. and 5% CO2. The next day, cells were washed using an ELX 405 (BioTek) with four washes (80 μL) of assay buffer then aspirated to 20 μL. Next, 20 μL of 16 μM Fluo-4/acetoxymethyl ester (Invitrogen, Carlsbad, Calif.) prepared as a 2.3 mM stock in DMSO and mixed in a 1:1 ratio with 10% (w/v) Pluronic F-127 and diluted in assay buffer was added to the wells and the cell plates were incubated for 50 min at 37° C. and 5% CO2. Dye was removed by washing with the ELX 405 (four 80 μL washes of assay buffer) then aspirated to 20 μL. Compound master plates were formatted in an 11 point CRC format (1:3 dilutions) in 100% DMSO with a starting concentration of 10 mM using the BRAVO liquid handler (Agilent). Test compound CRCs were then transferred to daughter plates (240 nL) using the Echo acoustic plate reformatter (Labcyte, Sunnyvale, Calif.) and then diluted into assay buffer (40 μL) to a 2× stock using a Thermo Fisher Combi (Thermo Fisher Scientific, Waltham, Mass.).
Calcium flux was measured using the Functional Drug Screening System (FDSS) 6000 (Hamamatsu Corporation, Tokyo, Japan) as an increase in the fluorescent static ratio. Compounds were applied to cells (20 μL, 2×) using the automated system of the FDSS 6000 at 4 s into the 300 s protocol and the data were collected at 1 Hz. At 144 s into the 300s protocol, 10 μL of an EC20 concentration of the muscarinic receptor agonist acetylcholine was added (5×), followed by the addition of 12 μL an EC80 concentration of acetylcholine at the 230 s time point (5×). Agonist activity was analyzed as a concentration-dependent increase in calcium mobilization upon compound addition. Emax values for agonist activity are expressed relative to the maximum for acetylcholine. Positive allosteric modulator activity was analyzed as a concentration-dependent increase in the EC20 acetylcholine response. Antagonist activity was analyzed as a concentration-dependent decrease in the EC80 acetylcholine response. Concentration-response curves were generated using a four-parameter logistical equation in XLfit curve fitting software (IDBS, Bridgewater, N.J.) for Excel (Microsoft, Redmond, Wash.) or Prism (GraphPad Software, Inc., San Diego, Calif.). […]

Row | SMILES | pEC50 | Emax [%]
1 | Cn1ccc(-c2ccc(Cc3cc(C(=O)N[C@H]4CCC[C@@H]4O)c4ncnn4c3)cc2)n1 [compound 11, N-[(1S,2S)-2-hydroxycyclopentyl]-6-[[4-(1-methylpyrazol-3-yl)phenyl]methyl]-[1,2,4]triazolo[1,5-a]pyridine-8-carboxamide] | 5.60 | 88
2 | Cn1ccc(-c2ccc(Cc3cc(C(=O)NC4CCOCC4)c4nccn4c3)cc2)n1 [compound 1, 6-[[4-(1-methylpyrazol-3-yl)phenyl]methyl]-N-tetrahydropyran-4-yl-imidazo[1,2-a]pyridine-8-carboxamide] | 5.20 | 68
3 | Cn1ccc(-c2ccc(Cc3cc(C(=O)NC4CC5(COC5)C4)c4ncnn4c3)cc2)n1 [compound 9, 6-[[4-(1-methylpyrazol-3-yl)phenyl]methyl]-N-(2-oxaspiro[3.3]heptan-6-yl)-[1,2,4]triazolo[1,5-a]pyridine-8-carboxamide] | 5.31 | 66
4 | Cn1cc(-c2ccc(Cc3cc(C(=O)NC4CCOCC4)c4ncnn4c3)cc2)cn1 [compound 34, 6-[[4-(1-methylpyrazol-4-yl)phenyl]methyl]-N-tetrahydropyran-4-yl-[1,2,4]triazolo[1,5-a]pyridine-8-carboxamide] | 5.43 | 35
5 | Cn1ccc(-c2ccc(Cc3cc(C(=O)N[C@H]4CCCC[C@@H]4O)c4ncnn4c3)cn2)n1 [compound 37, N-[(1S,2S)-2-hydroxycyclohexyl]-6-[[6-(1-methylpyrazol-3-yl)-3-pyridyl]methyl]-[1,2,4]triazolo[1,5-a]pyridine-8-carboxamide] | 5.45 | 83
6 | O=C(N[C@H]1CCC[C@@H]1O)c1cc(Cc2ccc(-n3cccn3)cc2)cn2ccnc12 [compound 24, N-[(1S,2S)-2-hydroxycyclopentyl]-6-[(4-pyrazol-1-ylphenyl)methyl]imidazo[1,2-a]pyridine-8-carboxamide] | 5.67 | 76
7 | Cn1ccc(-c2ccc(Cc3cc(C(=O)NC4CCOCC4)c4ncnn4c3)cc2)n1 [compound 8, 6-[[4-(1-methylpyrazol-3-yl)phenyl]methyl]-N-tetrahydropyran-4-yl-[1,2,4]triazolo[1,5-a]pyridine-8-carboxamide] |  | 53
8 | Cn1ccc(-c2ccc(Cc3cc(C(=O)N[C@H]4CCOC[C@@H]4O)c4ncnn4c3)cn2)n1 [compound 27, N-[(3R,4S)-3-hydroxytetrahydropyran-4-yl]-6-[[6-(1-methylpyrazol-3-yl)-3-pyridyl]methyl]-[1,2,4]triazolo[1,5-a]pyridine-8-carboxamide] | 5.10 | 78
9 | O=C(NC1CCOCC1)c1cc(Cc2ccc(-n3cccn3)cc2)cn2ncnc12 [compound 36, 6-[(4-pyrazol-1-ylphenyl)methyl]-N-tetrahydropyran-4-yl-[1,2,4]triazolo[1,5-a]pyridine-8-carboxamide] |  | 47
10 | O=C(N[C@H]1CCOC[C@@H]1O)c1cc(Cc2ccc(-n3cccn3)nc2)cn2ccnc12 [compound 63, N-[(3R,4S)-3-hydroxytetrahydropyran-4-yl]-6-[(6-pyrazol-1-yl-3-pyridyl)methyl]imidazo[1,2-a]pyridine-8-carboxamide] | 5.32 | 67

More lines, in order of rising pEC50, values ahead:

Row | pEC50 | Emax [%] | SMILES
11 | 5.77 | 74 | O=C(N[C@H]1CCCC[C@@H]1O)c1cc(Cc2ccc(-n3cccn3)cc2)cn2cnnc12 [compound 19, N-[(1S,2S)-2-hydroxycyclohexyl]-6-[(4-pyrazol-1-ylphenyl)methyl]-[1,2,4]triazolo[4,3-a]pyridine-8-carboxamide]
12 | 5.90 | 85 | O=C(N[C@H]1CCOC[C@@H]1O)c1cc(Cc2ccc(-n3cccn3)cc2)cn2ncnc12 [compound 30, N-[(3R,4S)-3-hydroxytetrahydropyran-4-yl]-6-[(4-pyrazol-1-ylphenyl)methyl]-[1,2,4]triazolo[1,5-a]pyridine-8-carboxamide]
13 | 5.95 | 85 | Cn1cc(-c2ccc(Cc3cc(C(=O)N[C@H]4CCOC[C@@H]4O)c4ncnn4c3)cc2)cn1 [compound 28, N-[(3R,4S)-3-hydroxytetrahydropyran-4-yl]-6-[[4-(1-methylpyrazol-4-yl)phenyl]methyl]-[1,2,4]triazolo[1,5-a]pyridine-8-carboxamide]
14 | 6.00 | 84 | Cn1cc(-c2ccc(Cc3cc(C(=O)N[C@H]4CCC[C@@H]4O)c4nccn4c3)c(F)c2)cn1 [compound 58, 6-[[2-fluoro-4-(1-methylpyrazol-4-yl)phenyl]methyl]-N-[(1S,2S)-2-hydroxycyclopentyl]imidazo[1,2-a]pyridine-8-carboxamide]
15 | 6.04 | 83 | Cn1cc(-c2ccc(Cc3cc(C(=O)N[C@H]4CCOC[C@@H]4O)c4ncnn4c3)cn2)cn1 [compound 12, N-[(3R,4S)-3-hydroxytetrahydropyran-4-yl]-6-[[6-(1-methylpyrazol-4-yl)-3-pyridyl]methyl]-[1,2,4]triazolo[1,5-a]pyridine-8-carboxamide]
16 | 6.16 | 89 | Cn1cc(-c2ccc(Cc3cc(C(=O)N[C@H]4CCCC[C@@H]4O)c4nccn4c3)cc2)cn1 [compound 62, N-[(1S,2S)-2-hydroxycyclohexyl]-6-[[4-(1-methylpyrazol-4-yl)phenyl]methyl]imidazo[1,2-a]pyridine-8-carboxamide]
17 | 6.16 | 82 | Cn1ccc(-c2ccc(Cc3cc(C(=O)N[C@H]4CCOC[C@@H]4O)c4ncnn4c3)c(F)c2)n1 [compound 45, 6-[[2-fluoro-4-(1-methylpyrazol-3-yl)phenyl]methyl]-N-[(3R,4S)-3-hydroxytetrahydropyran-4-yl]-[1,2,4]triazolo[1,5-a]pyridine-8-carboxamide]
18 | 6.25 | 58 | Cn1ccc(-c2cc(F)c(Cc3cc(C(=O)N[C@H]4CCCC[C@@H]4O)c4nccn4c3)c(F)c2)n1 [compound 39, 6-[[2,6-difluoro-4-(1-methylpyrazol-3-yl)phenyl]methyl]-N-[(1S,2S)-2-hydroxycyclohexyl]imidazo[1,2-a]pyridine-8-carboxamide]
19 | 6.41 | 82 | Cn1cc(-c2cc(F)c(Cc3cc(C(=O)N[C@H]4CCCC[C@@H]4O)c4ncnn4c3)c(F)c2)cn1 [compound 44, 6-[[2,6-difluoro-4-(1-methylpyrazol-4-yl)phenyl]methyl]-N-[(1S,2S)-2-hydroxycyclohexyl]-[1,2,4]triazolo[1,5-a]pyridine-8-carboxamide]
20 | 6.86 | 59 | Cc1c(Cc2ccc(-c3ccn(C)n3)cc2)cc(C(=O)N[C@H]2CCCC[C@@H]2O)c2nccn12 [compound 51, N-[(1S,2S)-2-hydroxycyclohexyl]-5-methyl-6-[[4-(1-methylpyrazol-3-yl)phenyl]methyl]imidazo[1,2-a]pyridine-8-carboxamide]
